Laboratory results taken from US20240092774A1, “HETEROAROMATIC COMPOUNDS AND USES THEREOF” (HUTCHISON MEDIPHARMA LIMITED, priority 2020, published 2024).
pIC50: −log10 of the molar value. Like-named read-outs stand apart in the source and are kept apart here.

Columns and labels:
[1] = biological target: Recombinant human CSF1R kinase (Homo sapiens (Human), UniProt P07333); assay: Measurement of CSF1R kinase activity at molecular level (Z-LYTE); format: biochemical; settings: Z-LYTE Tyr 1 peptide
Recombinant human CSF1R kinase, sequence (P07333 20-972): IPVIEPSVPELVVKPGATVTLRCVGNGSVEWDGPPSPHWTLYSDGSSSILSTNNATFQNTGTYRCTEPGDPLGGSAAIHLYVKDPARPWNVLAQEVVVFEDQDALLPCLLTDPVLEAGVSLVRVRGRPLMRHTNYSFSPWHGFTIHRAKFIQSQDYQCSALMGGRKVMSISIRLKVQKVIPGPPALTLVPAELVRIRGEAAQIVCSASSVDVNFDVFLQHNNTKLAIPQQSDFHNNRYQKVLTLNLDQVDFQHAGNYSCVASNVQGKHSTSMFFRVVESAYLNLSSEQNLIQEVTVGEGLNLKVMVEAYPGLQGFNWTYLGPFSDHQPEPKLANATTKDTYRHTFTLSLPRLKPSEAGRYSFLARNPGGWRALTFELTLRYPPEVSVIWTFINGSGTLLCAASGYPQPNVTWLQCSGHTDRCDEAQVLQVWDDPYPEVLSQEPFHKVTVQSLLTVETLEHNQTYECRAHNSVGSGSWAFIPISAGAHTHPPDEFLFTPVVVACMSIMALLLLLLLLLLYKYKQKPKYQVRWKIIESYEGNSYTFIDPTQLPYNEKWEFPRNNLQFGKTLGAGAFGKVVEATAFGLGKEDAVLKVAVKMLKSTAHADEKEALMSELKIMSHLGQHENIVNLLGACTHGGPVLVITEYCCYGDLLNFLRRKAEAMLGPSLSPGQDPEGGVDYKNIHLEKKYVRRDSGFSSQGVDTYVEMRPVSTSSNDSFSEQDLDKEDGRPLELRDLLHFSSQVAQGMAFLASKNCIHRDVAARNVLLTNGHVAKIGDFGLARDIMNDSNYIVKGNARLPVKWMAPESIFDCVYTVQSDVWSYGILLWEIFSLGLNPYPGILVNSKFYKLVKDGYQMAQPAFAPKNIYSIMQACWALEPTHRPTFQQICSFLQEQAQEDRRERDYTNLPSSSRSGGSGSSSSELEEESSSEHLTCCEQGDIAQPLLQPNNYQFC
Description: Invitrogen, PV3227; • Development reagent B: Invitrogen, PV3295; • Development buffer: Invitrogen. P3127; • Stopping solution: Invitrogen, P3094; • Recombinant human CSF1R kinase: Invitrogen, P[…]; • 384 well plate, black: Corning. 3575; • Envision: Perkin Elmer. 2. […] The test compound was diluted in gradient to 4-fold the reaction concentration and the concentration of DMSO was kept at 8%. […] The mixture was mixed gently with a pipette. • 4) A phosphorylated peptide substrate solution (PP solution): 0.4 μL of Z-LYTETM Tyr1 phosphorylated peptide substrate was added to 99.6 μl of 1.33× kinase buffer. • 5) ATP solution: 10 mM of ATP was diluted to 760 μM with 1.33× kinase buffer to prepare ATP solution. • 6) Development solution: Development reagent B was diluted with Development buffer at a ratio of 1:200. 3. […] 2.5 μL of 4× test compound was added to each reaction well of the 384 plate, and the corresponding volume of 8% DMSO was added to the control well. The plate was placed on ice. […] After adding the reaction components, the 384-well plate was sealed and incubated at 25-30° C. for 1 h in dark. 2) Development Reaction 5 μL of Development solution was added to each well, sealed and incubated at 25-30° C. for another 1 h in dark. 3) Reaction Stopping and Plate Reading 5 μL of stopping solution was added to each well. The Coumarin value (excitation at 400 nm, emission at 445 nm) and Fluorescein value (excitation at 400 nm, emission at 520 nm) were measured, respectively. 4. […] Coumarin emission read-out (445 nm)/Fluorescein emission read-out (520 nm); • C3 445 nm: 100% phosphorylated Coumarin emission read-out; • C3 520 nm: 100% phosphorylated Fluorescein emission read-out; • C1 445 nm: 0% phosphorylated Coumarin emission read-out; • C1 520 nm: 0% phosphorylated Fluorescein emission read-out. […] 5. IC50 values: calculated by using software XL-FitTM (version 5.3) supplied by ID Business Solutions (Guildford, UK), which is an additional software to Microsoft Excel.

[2] = biological target: CSF1R phosphorylation in THP-1 cells (Homo sapiens (Human), UniProt P07333); assay: Detection of CSF1R phosphorylation activity at cell level (p-CSF1R ELISA, M-CSF stimulated THP-1 cells); format: cell-based; settings: for pIC50: THP-1 cells, M-CSF stimulation, p-CSF1R ELISA, read-out: IC50
CSF1R phosphorylation in THP-1 cells, sequence (P07333 20-972): as above
Description: THP-1 (ATCC), human acute monocytic leukemia cells.
3. Treatment of cells and preparation of lysis buffer
5 μL. of the diluted compound was added to the 50 μL cell culture system, the culture was cultured in a 5% CO2, 37° C. cell incubator for 60 min, 300 ng/mL of M-CSF was added to the cells, and the mixture was stimulated in the 37° C. cell incubator for 1 min, added 50 μL of cell lysis buffer, and stored in a refrigerator at −80° C.
100 μL/well of the p-CSF1R capture antibody diluted to 0.8 μg/mL with PBS was added to the ELISA plate, and the plate was coated on a shaker at room temperature overnight. The culture was washed with PBST, and then added blocking solution and incubated at room temperature for 2 h. The culture was washed with PBST, added 90 μL of cell lysis buffer, and incubated on a shaker at 25° C. for 2 h. The plate was washed with PBST three times, added 100 μL of anti-p-tyrosine-HRP detection antibody diluted with 0.1% PBS-BSA diluent, and incubated on a shaker at 25° C. for 2 h. The plate was washed with PBST washing liquid, added 100 μL of chromogenic substrate and incubated at room temperature for 10-20 min. The reaction was stopped by adding 50 μL of 2N H2SO4. The optical density signal (450/570 nm) of each well was detected in Labsystems Multiskan K3 or Envision.
wherein • Drug-treated well read-out: indicating the optical density signal of a cell well with the test compound treatment. • Background read-out: indicating the optical density signal of a well without cells but with cell lysis buffer. • Cell well read-out: indicating the optical density signal of a cell well not treated with the compound.
6. Calculation of IC50: obtained by using XL-Fit 5.3 software, […]

SMILES	pIC50 [1]	pIC50 [2]	IC50 ([2]; IC50 (μM))
COc1cc(Oc2ccc3ncc(N)c(=O)n3c2)cnc1OCc1ccc(-n2cccn2)cc1 [Compound 24]	8.52	7.47	
Cc1cnc2ccc(Oc3cnc4c(c3)OC[C@@H](c3ccc(C5CC5)cc3)O4)cn2c1=O [Compound 57]	7.82	7.80	
COc1cc(Oc2ccc3ncn(C)c(=O)c3c2)cnc1OCc1ccc(C2CC2)cc1 [Compound 16]	7.66	8.30	
COc1cc(Oc2ccc3ncc(C)c(=O)n3c2)cnc1OCCc1ccccc1 [Compound 40]	7.48	6.72	
Cn1cc(-c2cc(Oc3cnc4c(c3)OCC(c3ccc(C5CC5)cc3)O4)ccn2)cn1 (racemic) [Compound 51, (R/S)-3-(4-cyclopropylphenyl)-7-((2-(1-methyl-1H-pyrazol-4-yl)pyridin-4-yl)oxy)-2,3-dihydro-[1,4]dioxino[2,3-b]pyridine]	8.10	8.22	
COc1cc(Cc2ccnc(-c3cnn(C)c3)c2)cnc1OCc1ccc(C2CC2)cc1 [Compound 46, 2-((4-cyclopropylbenzyl)oxy)-3-methoxy-5-((2-(1-methyl-1H-pyrazol-4-yl)pyridin-4-yl)methyl)pyridine]	7.55	8.30	
COc1cc(Oc2ccc3ncc(C)c(=O)n3c2)cnc1OCc1ccc(C2CC2)cc1 [Compound 21]	7.89	8.10	
Cn1cc(-c2cc(Oc3cnc4c(c3)O[C@H](c3ccc(C5CC5)cc3)CO4)ccn2)cn1 (single isomer, unassigned) [Compound 50, (R/S)-2-(4-cyclopropylphenyl)-7-((2-(1-methyl-1H-pyrazol-4-yl)pyridin-4-yl)oxy)-2,3-dihydro-[1,4]dioxino[2,3-b]pyridine]	7.14	6.71	
COc1cccc(CCOc2ncc(Oc3ccc4ncc(C)c(=O)n4c3)cc2OC)c1 [Compound 39]	7.82	6.52	
COc1cc(Oc2ccc3ncc(C)c(=O)n3c2)cnc1OCc1ccccc1 [Compound 43]	8.40	7.27	
COc1cc(Oc2ccc3ncc(C)c(=O)n3c2)cnc1OCc1ccc(C)cc1 [Compound 44]	8.40	7.72	
Cn1cc(-c2cc(Oc3cnc4c(c3)OCC(c3ccc(C5CC5)nc3)O4)ccn2)cn1 (racemic) [Compound 53, (R/S)-3-(6-cyclopropylpyridin-3-yl)-7-((2-(1-methyl-1H-pyrazol-4-yl)pyridin-4-yl)oxy)-2,3-dihydro-[1,4]dioxino[2,3-b]pyridine]	8.52	7.72	
COc1cc(Oc2ccc3ncc(N)c(=O)n3c2)cnc1OCc1ccc(C2CC2)cc1 [Compound 22]	7.92	8.05	
COc1cc(Oc2ccc3ncccc3c2)cnc1OCc1ccc(C2CC2)cc1 [Compound 18]	7.48	8.30	
COc1cc(Oc2ccc3ncc(C)c(=O)n3c2)cnc1OCc1ccc(C2CC2)c(F)c1 [Compound 9]	7.20	8.22	
Cc1cnc2ccc(Oc3cnc4c(c3)OC[C@H](c3ccc(C5CC5)cc3)O4)cn2c1=O [Compound 58]	7.92	7.59	
Cn1cc(-c2cc(Oc3cnc4c(c3)OCC(c3ccc(C5CC5)cc3)O4)ccn2)cn1 (racemic) [Compound 48, (R/S)-3-(4-cyclopropylphenyl)-7-((2-(1-methyl-1H-pyrazol-4-yl)pyridin-4-yl)oxy)-2,3-dihydro-[1,4]dioxino[2,3-b]pyridine]	8.30	8.30	
COc1cc(Oc2ccc3ncc(C)c(=O)n3c2)cnc1OCc1ccc(C(C)(C)O)cc1 [Compound 27]	7.80	7.35	
COc1cc(Oc2ccc3ncc(C4CC4)c(=O)n3c2)cnc1OCc1ccc(C)cc1 [Compound 36]	7.68	7.25	
COc1ccc(COc2ncc(Oc3ccc4ncc(N)c(=O)n4c3)cc2OC)cc1 [Compound 32]	8.52	8.40	
COc1ccc(COc2ncc(Cc3ccc4ncc(C)c(=O)n4c3)cc2OC)cc1 [Compound 47, 7-((5-methoxy-6-((4-methoxybenzyl)oxy)pyridin-3-yl)methyl)-3-methyl-4H-pyrido[1,2-a]pyrimidin-4-one]	7.89	7.92	
COc1cc(Oc2ccc3c(c2)C2=NCCN2C=N3)cnc1OCc1ccc(C2CC2)cc1 [Compound 17]	7.82	7.74	
COc1ccc(COc2ccc(Oc3ccc4ncc(C)c(=O)n4c3)cn2)cc1 [Compound 1, 7-((6-((4-methoxybenzyl)oxy)pyridin-3-yl)oxy)-3-methyl-4H-pyrido[1,2-a]pyrimidin-4-one]	8.00		0.052 µM
COc1ccc(COc2ncc(Oc3ccc4ncc(C)c(=O)n4c3)cc2OC)cc1 [Compound 6]	8.15	8.40	
COc1ccc(COc2ncc(Oc3ccc4ncc(C)c(=O)n4c3)cn2)cc1 [Compound 29]	8.22	7.64	

Second part, led by results:

pIC50 [1]	pIC50 [2]	SMILES	IC50 ([2]; IC50 (μM))
7.59	7.19	COc1ccc([C@@H]2COc3cc(Oc4ccc5nccc(=O)n5c4)cnc3O2)nc1 [Compound 78]	
8.10	7.82	COc1ccc([C@H]2COc3cc(Oc4ccnc(-c5cnn(C)c5)c4)cnc3O2)cn1 [Compound 70]	
8.30	7.80	COc1ccc([C@@H]2COc3cc(Oc4ccnc(-c5cnn(C)c5)c4)cnc3O2)cc1 [Compound 67]	
7.89	7.66	COc1ccc([C@@H]2COc3cc(Oc4ccc5ncc(C)c(=O)n5c4)cnc3O2)nc1 [Compound 80]	
8.30	8.00	COc1ccc([C@@H]2COc3cc(Oc4ccc5ncc(C)c(=O)n5c4)cnc3O2)cc1 [Compound 65]	
8.22	7.77	Cn1cc(-c2cc(Oc3cnc4c(c3)OC[C@H](c3ccc(C5CC5)cn3)O4)ccn2)cn1 [Compound 73]	
8.52	7.54	Cc1cnc2ccc(Oc3cnc4c(c3)OC[C@@H](c3ccc(C5CC5)nc3)O4)cn2c1=O [Compound 61]	
8.30	8.05	Cn1cc(-c2cc(Oc3cnc4c(c3)OC[C@@H](c3ccc(C5CC5)cn3)O4)ccn2)cn1 [Compound 74]	
7.96	7.89	COc1ccc([C@@H]2COc3cc(Oc4ccnc(-c5cnn(C)c5)c4)cnc3O2)nc1 [Compound 82]	
7.85	7.49	O=c1ccnc2ccc(Oc3cnc4c(c3)OC[C@@H](c3ccc(C5CC5)cn3)O4)cn12 [Compound 72]	
7.82	6.93	Cc1cnc2ccc(Oc3cnc4c(c3)OC[C@H](c3ccc(C5CC5)cn3)O4)cn2c1=O [Compound 75]	
8.40	7.33	Cc1cnc2ccc(Oc3cnc4c(c3)OC[C@H](c3ccc(C5CC5)nc3)O4)cn2c1=O [Compound 62]	
8.52	7.77	COc1ccc([C@@H]2COc3cc(Oc4ccnc(-c5cnn(C)c5)c4)cnc3O2)cn1 [Compound 69]	
8.30	7.74	COc1ccc([C@@H]2COc3cc(Oc4ccc5nccc(=O)n5c4)cnc3O2)cc1 [Compound 63]	
